Source: patent US7705153B2, “Bipiperdine derivatives useful as CCR3 antagonists” (Schering Corporation, priority 2004, dated 2010)

Tests used:
[1] = molecular target: T1, human CCR3 (Homo sapiens, UniProt P51677); experiment: CCR3 SPA-based receptor binding assay; set-up: host or cells: Y3 cell line (rat), selected with G418; conditions: [125I]-eotaxin competition, membranes from human CCR3 transfected Y3 cell line
T1 sequence (P51677 1-355): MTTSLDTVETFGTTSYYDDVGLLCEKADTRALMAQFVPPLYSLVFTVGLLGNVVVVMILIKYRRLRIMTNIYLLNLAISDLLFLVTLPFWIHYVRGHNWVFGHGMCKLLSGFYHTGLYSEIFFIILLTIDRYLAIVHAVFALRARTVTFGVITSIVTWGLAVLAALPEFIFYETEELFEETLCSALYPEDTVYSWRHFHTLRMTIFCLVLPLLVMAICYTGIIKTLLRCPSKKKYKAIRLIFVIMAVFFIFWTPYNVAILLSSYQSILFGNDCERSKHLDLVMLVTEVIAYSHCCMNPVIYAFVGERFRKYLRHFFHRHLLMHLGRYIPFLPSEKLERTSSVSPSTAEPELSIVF
Description: CCR3 SPA-Based Receptor Binding Assay:
The procedure used was disclosed in Dairaghi et al, J. Biol. Chem., 272 (1997), pg. 28206-28209, and is described in detail below.
The source of the CCR3 receptors for this assay was purified membranes from a human CCR3 transfected Y3 cell line. Membranes were prepared by MDS Pharma Services (Bothell, Wash.) as follows. Cells were grown under selection (1 mg/ml G418) in 50-stack cube bioreactors with minimal media recirculation. Cells were harvested with trypsin and washed once with PBS. Cells were resuspended in 20 volumes of ice cold 2.5 mM Tris-HCl, pH 7.4 containing protease inhibitors (0.3 mM PMSF, 3 μg/ml aprotinin, 3 μg/ml luepeptin) and incubated on ice for 15 min. The swollen cells were lysed by vigorous vortexing and large debris was removed by centrifugation (1200 rpm, 5 min., 4° C.). The cleared lysate was subjected to ultra-centrifugation (100,000×g, 1 hr., 4° C.) to pellet the membrane fraction and the membrane fraction was resuspended in 25 mM HEPES, pH 7.6, 75 mM NaCl, 1 mM EDTA. Protease inhibitors were added as described above after a sample was removed for protein determination. The membrane preparation was brought to 6 to 10 mg/ml final concentration and BSA was added to 0.5%. Membranes were stored in 1 ml aliquots (−70° C.). […]

[2] = molecular target: T1, human CCR3; experiment: Intracellular calcium (Calcium flux, FLIPR) assay in CREM3 cells; assay type: cell-based; set-up: expressed in transfected cells; host or cells: CREM3 cells (rat Y3 cell line stably expressing human CCR3); conditions: CREM3 cells (human CCR3 in rat Y3 cell line)
Description: An IC50 value was interpolated from the dilution series for each compound and used to calculate a Ki value using the following equation: Ki=IC50/(1+[ligand]/Kd) Intracellular Calcium Assay: Cell Culture:
CREM3 cells, in which the human CCR3 receptor is stably expressed in the rat Y3 cell line, were cultured in DMEM high glucose containing 10% FBS, 50 U/ml penicillin, 50 μg/ml streptomycin, 2 mM L-glutamine, 1 mg/ml G418 (Gemini Bioproducts). Cells were cultured in fresh medium every 2 days.
Intracellular calcium levels were measured using a fluorometric imaging plate reader (FLIPR), (Molecular Devices, Sunnyvale Calif.) as described by the manufacturer. CREM3 cells were cultured overnight at 20,000 cells/well in 96 well black-wall clear bottom plates (Packard), precoated with 100 μg/ml poly D-lysine hydrobromide (Sigma). Adherent CREM3 cells were loaded with 4 μM Fluo-3 AM (Molecular Probes, Eugene, Oreg.), in pH 7.4 HBSS without phenol red, containing 20 mM HEPES, 0.5% FBS, 2.5 mM probenecid (Sigma), 0.04% pluronic acid (Molecular Probes) for 1 h at 37° C. […] Fluorescence data was collected at 1 s interval for 60 s, followed by collection at 2 s intervals for 60 s. Background fluorescence was quantitated in wells containing cells but no chemokines and was subtracted from all experimental samples. […]

- Ki [1]: 2.8 nM
- IC50 [2]: 3.6 nM
SMILES: COc1ccc(C(=O)N2CCC(N3CC[C@@H](Cc4ccc(Cl)c(Cl)c4)[C@@H](CO)C3)CC2)c2cccnc12 (relative stereo) [Example 2-EE]
